Consider two compounds from patent US9415049B2, “Heteroaryl compounds and uses thereof” (Celgene Avilomics Research, Inc., priority 2013, dated 2016).

Test [1] addresses T1, human recombinant full-length Btk enzyme (Homo sapiens, UniProt Q06187). Description: Omnia Continuous Read Kinase Assay, Btk inhibition. The settings on record: 30 minutes pre-incubation at 27° C.; 0.5 nM to 10 μM. Further details: human recombinant full-length Btk enzyme. In kind it is biochemical. The source says:
The following Example describes testing certain compounds according to the invention for inhibition of BTK activity. The Omnia® Continuous Read Kinase Assay uses an unnatural amino acid chelation enhanced fluorophore (Sox; 8-hydroxy-5-(N,N-dimethylsulfonamido)-2 methylquinoline) incorporated into a kinase-specific peptide substrate to characterize Btk enzyme kinetics and inhibition. Following Btk-mediated phosphorylation, a sensitive, highly quantifiable increase in real-time fluorescence is noted based upon the ability of chelated Mg2+ to form a bridge between Sox and the phosphate group on a tyrosine residue of the peptide substrate. The Omnia® continuous read assay was performed essentially as described by the vendor (Invitrogen; Carlsbad, Calif.). First, a 10× stock of human recombinant full-length Btk enzyme was prepared in Kinase Reaction Buffer. 5 μL of the 10× enzyme was pre-incubated with 0.5 μL of serially diluted compound prepared in 50% DMSO, in a 384-well microtiter plate for 30 minutes at 27° C. 1.13×ATP and the Tyr5-Sox conjugated peptide substrate were prepared in 1× Kinase Reaction Buffer. Kinase reactions were initiated by the addition of 45 μL of the 1.13×ATP-Sox peptide substrate master mix and monitored every 30 to 90 seconds for 60 minutes at λex360/λem485 in a Synergy plate reader. The IC50 values for each compound assayed were determined from test concentrations of 0.5 nM to 10 μM in half-log intervals performed in duplicate.
At the conclusion of each assay, progress curves from each well were examined for linear reaction kinetics and fit statistics (R2, 95% confidence interval, absolute sum of squares) using GraphPad software (GraphPad Prism version 5.01; San Diego, Calif.). Initial velocity (0 minutes to ˜30+ minutes) from each reaction was determined from the slope of a plot of relative fluorescence units versus time (minutes). Using control normalized % inhibition data, plots were constructed against inhibitor concentration to estimate IC50 from log [inhibitor] versus response using a variable slope model in GraphPad. The compound numbers correspond to the compound numbers in Table 1.

For test [2], the target named is T1, human recombinant full-length Btk enzyme. As to the kind of experiment: Covalent bonding assay, intact protein MALDI mass spectrometry. The settings on record: percentage of total protein covalently modified after one hour incubation, 10-fold excess of compound, room temperature. Type of test: binding. Further details: The full-length recombinant human Btk protein; purchased Invitrogen Lot #619547Q (catalogue number not given). On the procedure:
The following example describes testing certain compounds to determine whether they covalently bind to BTK. The full-length recombinant human Btk protein (Lot #619547Q; 0.35 mg/mL) was obtained from Invitrogen (Carlsbad, Calif.). Btk protein was diluted 2:3 in phosphate-buffered saline and stock concentration (10 mM) of compound was diluted 1:115 in 50% DMSO.
For all compounds, 1 μL of diluted compound was added to 5 μL of diluted protein. These mixtures were then incubated for 60 minutes at a 10-fold excess of compound to protein under room temperature (˜24° C.) conditions.
At the end of the incubation, 5 μL aliquots of the samples were diluted with 15 μL of 0.2% TFA prior to micro C4 ZipTipping® directly onto the MALDI target plate using sinapinic acid as the desorption matrix (10 mg/mL in 0.2% TFA:Acetonitrile 50:50). Samples were immediately analyzed on an ABSciex 4800 MALDI TOF-TOF mass spectrometer.
For intact protein mass measurement, the mass spectrometer was set in linear mode using a pulsed extraction setting of 81,500. Bovine serum albumin (BSA; Sigma, St Louis, Mo.) was used as the standard to calibrate the instrument. These values correspond to the percentage of total protein covalently modified by the tested compound after one hour incubation.

T1 sequence (Q06187 whole entry): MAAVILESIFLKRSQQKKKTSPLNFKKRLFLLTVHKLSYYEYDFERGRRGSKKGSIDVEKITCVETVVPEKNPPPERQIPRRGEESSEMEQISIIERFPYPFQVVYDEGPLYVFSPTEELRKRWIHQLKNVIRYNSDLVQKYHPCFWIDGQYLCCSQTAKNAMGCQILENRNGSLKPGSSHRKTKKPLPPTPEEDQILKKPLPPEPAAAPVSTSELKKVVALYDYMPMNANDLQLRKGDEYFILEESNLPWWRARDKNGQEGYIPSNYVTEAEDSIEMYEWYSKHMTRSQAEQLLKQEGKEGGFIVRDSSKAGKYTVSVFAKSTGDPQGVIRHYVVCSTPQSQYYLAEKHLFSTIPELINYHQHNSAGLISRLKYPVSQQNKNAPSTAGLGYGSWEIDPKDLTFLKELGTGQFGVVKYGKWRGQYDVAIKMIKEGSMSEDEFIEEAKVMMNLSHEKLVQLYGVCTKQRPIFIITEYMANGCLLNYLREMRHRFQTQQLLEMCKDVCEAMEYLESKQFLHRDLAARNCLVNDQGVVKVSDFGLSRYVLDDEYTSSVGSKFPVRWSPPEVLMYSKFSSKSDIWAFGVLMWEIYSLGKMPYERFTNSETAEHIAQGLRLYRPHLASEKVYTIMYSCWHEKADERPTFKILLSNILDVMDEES

For the compound `C=CC(=O)Nc1cccc(Nc2nc(Nc3ccc(OCCO)cc3)ncc2F)c1` [Compound I-1, N-(3-((5-fluoro-2-((4-(2-hydroxyethoxy)phenyl)amino)pyrimidin-4-yl)amino)phenyl)acrylamide], the IC50 in test [1] is at most 10 nM. In addition, in test [2], the MS % modification result is on record as “B (31-69% modification)”.

In the case of `C=CC(=O)Nc1cccc(Nc2nc(Nc3ccc(O)cc3)ncc2F)c1` [Compound I-3, N-(3-((5-fluoro-2-((4-hydroxyphenyl)amino)pyrimidin-4-yl)amino)phenyl)acrylamide], the IC50 in test [1] was at most 10 nM. The MS % modification entry in test [2] is given as “A (>70% modification)”.

In general, IC50 refers to the midpoint of a concentration-inhibition curve.
